Results: patent US9902696B2, “1,4-substituted piperidine derivatives” (Cephalon, Inc., priority 2015, dated 2018)
Structures can show the parent of a compound that is named as a salt.

Each compound was assayed against T1, recombinant human baculovirus-expressed GST-tagged FASN (Homo sapiens, UniProt P49327) (assay: FASN enzyme activity assay, fluorescence-based detection of CoA with CPM). Settings: 5 nM FASN, 150 μM NADPH, 10 μM acetyl-CoA, 25 μM malonyl-CoA, 90 minutes incubation; read-out: IC50 data for Additional Compounds of Formulae I-V(a): Activity.
T1 construct: GST
Type: biochemical
Method in brief: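 Human GST-tagged FASN, baculovirus-expressed (5 nM), in 50 mM HEPES pH 7.5 with 150 μM NADPH, 10 μM acetyl-CoA, 25 μM malonyl-CoA, 0.5% DMSO; malonyl-CoA-started, 90 min. Released CoA detected with CPM (50 μM dilution), 30 min, fluorescence ex 390/em 530. IC50 from variable-slope sigmoidal fit of % inhibition versus log concentration.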

T1 sequence (P49327 whole entry): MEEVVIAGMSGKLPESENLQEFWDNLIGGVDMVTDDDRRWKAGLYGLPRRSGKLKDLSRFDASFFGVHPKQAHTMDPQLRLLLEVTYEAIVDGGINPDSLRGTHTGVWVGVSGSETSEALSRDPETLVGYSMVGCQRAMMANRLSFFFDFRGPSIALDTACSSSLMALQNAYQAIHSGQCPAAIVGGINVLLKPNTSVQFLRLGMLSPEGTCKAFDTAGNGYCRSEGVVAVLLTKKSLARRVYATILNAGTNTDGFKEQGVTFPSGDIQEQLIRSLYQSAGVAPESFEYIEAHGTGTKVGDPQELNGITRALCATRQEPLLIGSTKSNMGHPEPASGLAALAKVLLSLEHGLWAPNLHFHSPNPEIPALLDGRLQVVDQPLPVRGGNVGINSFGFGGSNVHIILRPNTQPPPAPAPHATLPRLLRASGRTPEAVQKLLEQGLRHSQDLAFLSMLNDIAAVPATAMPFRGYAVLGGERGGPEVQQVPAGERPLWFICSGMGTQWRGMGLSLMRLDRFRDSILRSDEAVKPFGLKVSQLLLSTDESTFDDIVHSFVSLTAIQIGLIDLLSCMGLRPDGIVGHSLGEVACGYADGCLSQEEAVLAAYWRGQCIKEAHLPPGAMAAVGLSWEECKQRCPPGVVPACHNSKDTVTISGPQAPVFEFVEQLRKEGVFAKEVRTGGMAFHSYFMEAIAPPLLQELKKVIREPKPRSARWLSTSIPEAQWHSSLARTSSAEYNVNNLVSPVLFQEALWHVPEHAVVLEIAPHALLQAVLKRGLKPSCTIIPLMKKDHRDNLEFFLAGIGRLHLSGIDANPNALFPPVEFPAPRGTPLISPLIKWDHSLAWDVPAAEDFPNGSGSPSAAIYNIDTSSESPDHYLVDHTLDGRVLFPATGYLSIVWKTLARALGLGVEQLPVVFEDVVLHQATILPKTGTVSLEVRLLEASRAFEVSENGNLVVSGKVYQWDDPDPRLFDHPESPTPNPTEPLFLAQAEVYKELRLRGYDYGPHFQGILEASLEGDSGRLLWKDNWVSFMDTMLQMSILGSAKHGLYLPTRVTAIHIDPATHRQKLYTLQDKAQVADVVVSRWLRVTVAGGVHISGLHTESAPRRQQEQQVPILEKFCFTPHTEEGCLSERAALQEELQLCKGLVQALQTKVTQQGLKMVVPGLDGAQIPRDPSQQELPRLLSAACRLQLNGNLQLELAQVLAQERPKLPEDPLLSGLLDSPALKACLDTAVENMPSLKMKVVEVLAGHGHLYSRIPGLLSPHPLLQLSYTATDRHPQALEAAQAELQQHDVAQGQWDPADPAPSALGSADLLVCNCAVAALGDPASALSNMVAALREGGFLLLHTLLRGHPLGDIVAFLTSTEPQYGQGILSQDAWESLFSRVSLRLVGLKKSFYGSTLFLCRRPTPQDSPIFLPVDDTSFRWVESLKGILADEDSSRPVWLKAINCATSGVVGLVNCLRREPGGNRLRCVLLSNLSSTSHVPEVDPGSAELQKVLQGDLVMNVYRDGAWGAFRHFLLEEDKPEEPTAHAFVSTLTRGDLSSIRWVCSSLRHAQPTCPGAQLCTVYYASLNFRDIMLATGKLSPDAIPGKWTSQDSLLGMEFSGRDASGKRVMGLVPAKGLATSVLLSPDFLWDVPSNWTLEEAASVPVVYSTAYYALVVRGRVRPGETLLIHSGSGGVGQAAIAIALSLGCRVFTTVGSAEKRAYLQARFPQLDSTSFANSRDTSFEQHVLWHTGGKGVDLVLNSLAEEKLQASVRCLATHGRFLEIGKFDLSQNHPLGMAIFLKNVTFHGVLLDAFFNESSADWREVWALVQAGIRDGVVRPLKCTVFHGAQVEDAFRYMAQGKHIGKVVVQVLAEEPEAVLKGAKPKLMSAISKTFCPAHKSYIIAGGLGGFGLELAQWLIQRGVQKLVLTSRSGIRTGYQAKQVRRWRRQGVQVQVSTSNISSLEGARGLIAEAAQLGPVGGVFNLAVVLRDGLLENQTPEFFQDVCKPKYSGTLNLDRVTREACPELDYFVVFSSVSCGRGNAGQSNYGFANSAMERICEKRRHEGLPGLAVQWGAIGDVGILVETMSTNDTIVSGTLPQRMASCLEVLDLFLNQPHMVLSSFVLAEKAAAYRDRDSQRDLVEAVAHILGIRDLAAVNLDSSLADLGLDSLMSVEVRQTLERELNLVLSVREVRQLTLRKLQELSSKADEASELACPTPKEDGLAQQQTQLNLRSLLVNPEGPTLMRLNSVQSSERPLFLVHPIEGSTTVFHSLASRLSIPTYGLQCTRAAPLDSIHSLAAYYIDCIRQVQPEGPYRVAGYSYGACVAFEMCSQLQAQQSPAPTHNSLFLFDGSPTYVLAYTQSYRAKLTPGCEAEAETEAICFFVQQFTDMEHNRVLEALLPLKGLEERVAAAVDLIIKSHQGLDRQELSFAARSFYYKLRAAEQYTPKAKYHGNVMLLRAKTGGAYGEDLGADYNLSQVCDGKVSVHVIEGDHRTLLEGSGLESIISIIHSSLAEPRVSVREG

First: CCONC(=O)N1CCC(Oc2ccc(-c3ccc4ccnn4c3C)cc2)CC1 [Example 538, N-Ethoxyoxy-4-[4-(7-methylpyrazolo[1,5-a]pyridin-6-yl)phenoxy]piperidine-1-carboxamide]
Second: Cc1c(-c2ccc(OC3CCN(C(N)=O)CC3)cc2)ccc2nccn12 [Example 615, 4-[4-(5-Methylimidazo[1,2-a]pyridin-6-yl)phenoxy]piperidine-1-carboxamide]
The IC50 of the first is lower: 1 to 99 nM for the first, 1000 to 10000 nM for the second.

With `Cc1c(-c2ccc(OC3CCN(C(=O)NCC4CC4)CC3)cc2)ccc2cccnc12` [Example 540, N-(Cyclopropylmethyl)-4-[4-(8-methyl-7-quinolyl)phenoxy]piperidine-1-carboxamide, HCl] the IC50 was 1 to 99 nM.

Same assay, conditions: 5 nM FASN, 150 μM NADPH, 10 μM acetyl-CoA, 25 μM malonyl-CoA, 90 minutes incubation; read-out: IC50 data for Compounds of Formulae I-V/V(a): Activity

First: CCC(=O)N1CCC(Oc2ccc(-c3cnc4c(C)cccc4c3)cc2)CC1 [Example 486, 1-{4-[4-(8-Methylquinolin-3-yl)-phenoxy]-piperidin-1-yl}-propan-1-one, HCl]
Second: CCC(=O)N1CCC(Oc2ccc(-c3cnc4c(OC)cccc4c3)cc2)CC1 [Example 57, 1-{4-[4-(8-Methoxyquinolin-3-yl)-phenoxy]-piperidin-1-yl}-propan-1-one]
The IC50 of the first is lower: 1 to 99 nM for the first, 100 to 999 nM for the second. The first is the more potent here.

`Cc1nccc2cc(-c3ccc(OC4CCN(C(=O)C5CC5)CC4)cc3)ccc12` [Example 481, Cyclopropyl-{4-[4-(1-methylisoquinolin-6-yl)-phenoxy]-piperidin-1-yl}-methanone] and `CCc1nccc2cc(-c3ccc(OC4CCN(C(=O)[C@H]5CCCO5)CC4)cc3)ccc12` [Example 438, {4-[4-(1-Ethylisoquinolin-6-yl)-phenoxy]-piperidin-1-yl}-(R)-tetrahydro-furan-2-yl-methanone, HCl] fall in the same range of IC50: 1 to 99 nM for the first, 1 to 99 nM for the second.

`CCC(=O)N1CCC(Oc2ccc(-c3cccc(-c4ccccn4)c3C)cc2)CC1` [Example 406, 1-[4-(2′-Methyl-3′-pyridin-2-yl-biphenyl-4-yloxy)-piperidin-1-yl]-propan-1-one; TFA salt] and `O=C(C1CC1)N1CCC(Oc2ccc(-c3cccc(-c4ccccn4)c3F)cc2)CC1` [Example 396, Cyclopropyl-[4-(2′-fluoro-3′-pyridin-2-yl-biphenyl-4-yloxy)-piperidin-1-yl]-methanone] fall in the same range of IC50: 1000 to 10000 nM for the first, 1000 to 10000 nM for the second.

First: CC(C)C(=O)N1CCC(S(=O)(=O)c2ccc(-c3ccc4ccncc4c3)cc2)CC1 [Example 513, 1-[4-(4-Isoquinolin-7-yl-benzenesulfonyl)-piperidin-1-yl]-2-methylpropan-1-one]
Second: CC(C)C(=O)N1CCC(Sc2ccc(-c3ccc4cnccc4c3)cc2)CC1 [Example 521, 1-(4-((4-(Isoquinolin-6-yl)phenyl)thio)piperidin-1-yl)-2-methylpropan-1-one HCl]
The IC50 of the first is higher: 1000 to 10000 nM for the first, 100 to 999 nM for the second. The second is the more potent here.

First: Cc1c(-c2ccc(OC3CCN(C(=O)C4(N)CC4)CC3)cc2)ccc2nccn12 [Example 305, (1-Aminocyclopropyl)-{4-[4-(5-methyl-imidazo[1,2-a]pyridin-6-yl)-phenoxy]-piperidin-1-yl}-methanone]
Second: CONC(=O)N1CCC(Oc2ccc(-c3ccc4cccnc4c3C)cc2)CC1 [Example 91, N-methoxy-4-[4-(8-methyl-7-quinolyl)phenoxy]piperidine-1-carboxamide]
The IC50 of the first is higher: 100 to 999 nM for the first, 1 to 99 nM for the second.

`O=C(N1CCC(Oc2ccc(-c3ccc4cccnc4c3Cl)cc2)CC1)N1CCCO1` [Example 77, {4-[4-(8-Chloroquinolin-7-yl)-phenoxy]-piperidin-1-yl}-isoxazolidin-2-yl-methanone] and `O=C(N1CCC(Oc2ccc(-c3cc4ccccc4cn3)cc2)CC1)N1CCCO1` [Example 74, [4-(4-Isoquinolin-3-yl-phenoxy)-piperidin-1-yl]-isoxazolidin-2-yl-methanone] fall in the same range of IC50: 1 to 99 nM for the first, 1 to 99 nM for the second.

First: CC(C)C(=O)N1CCC(Oc2cc(F)c(-c3cnc4ccccc4c3)cc2F)CC1 [Example 216, 1-[4-(2,5-Difluoro-4-quinolin-3-yl-phenoxy)-piperidin-1-yl]-2-methyl-propan-1-one]
Second: O=C(C1CC1)N1CCC(Oc2ccc(-c3cnc4ccccc4c3)c(F)c2)CC1 [Example 202, Cyclopropyl-[4-(3-fluoro-4-quinolin-3-yl-phenoxy)-piperidin-1-yl]-methanone]
The IC50 of the first is higher: 1000 to 10000 nM for the first, 1 to 99 nM for the second. The second is the more potent here.

First: CCC(=O)N1CCC(Oc2ccc(-c3ccc(N4CCOCC4)nc3)cc2)CC1 [Example 386, 1-{4-[4-(6-Morpholin-4-yl-pyridin-3-yl)-phenoxy]-piperidin-1-yl}-propan-1-one]
Second: CCC(=O)N1CCC(Oc2ccc(-c3ccc4cnccc4c3)cc2)CC1 [Example 1, 1-[4-(4-Isoquinolin-6-yl-phenoxy)-piperidin-1-yl]-propan-1-one]
The IC50 of the first is higher: 1000 to 10000 nM for the first, 1 to 99 nM for the second.

First: COCCNc1c(-c2ccc(OC3CCN(C(=O)[C@H]4CCCO4)CC3)cc2)ccc2cccnc12 [Example 327, (4-{4-[8-(2-Methoxyethylamino)-quinolin-7-yl]-phenoxy}-piperidin-1-yl)-(R)-tetrahydrofuran-2-yl-methanone]
Second: CC(C)Oc1c(-c2ccc(OC3CCN(C(=O)C4CC4)CC3)cc2)ccc2cccnc12 [Example 170, Cyclopropyl-{4-[4-(8-isopropoxyquinolin-7-yl)-phenoxy]-piperidin-1-yl}-methanone, HCl]
The IC50 of the first is lower: 1 to 99 nM for the first, 100 to 999 nM for the second.

First: O=C([C@H]1CCCO1)N1CCC(Oc2ccc(-c3ccc4cncn4c3)cc2)CC1 [Example 298, [4-(4-Imidazo[1,5-a]pyridin-6-yl-phenoxy)-piperidin-1-yl]-(R)-tetrahydro-furan-2-yl-methanone]
Second: O=C(C1CC1)N1CCC(Oc2ccc(-c3ccc4cncn4c3)cc2)CC1 [Example 300, Cyclopropyl-[4-(4-imidazo[1,5-a]pyridin-6-yl-phenoxy)-piperidin-1-yl]-methanone]
The IC50 of the first is lower: 1 to 99 nM for the first, 1000 to 10000 nM for the second.

Compared with `O=C(C1CCC1)N1CCC(Oc2ccc(-c3cc4ccccc4cn3)cc2)CC1` [Example 45, Cyclobutyl-[4-(4-isoquinolin-3-yl-phenoxy)-piperidin-1-yl]-methanone], `O=C(C1CCC1)N1CCC(Oc2ccc(-c3ccc(Oc4ccccc4)nc3)cc2)CC1` [Example 391, Cyclobutyl-{4-[4-(6-phenoxy-pyridin-3-yl)-phenoxy]-piperidin-1-yl}-methanone] is higher in IC50: 1 to 99 nM for the first, 1000 to 10000 nM for the second.

First: CN1CCN(c2nccc3cc(-c4ccc(OC5CCN(C(=O)[C@H]6CCCO6)CC5)cc4)ccc23)CC1 [Example 455]
Second: Cc1cnc(C)c2ccc(-c3ccc(OC4CCN(C(=O)[C@H]5CCCO5)CC4)cc3)cc12 [Example 471, [4-[4-(1,4-Dimethyl-6-isoquinolyl)phenoxy]-1-piperidyl]-[(2R)-tetrahydrofuran-2-yl]methanone, HCl]
The IC50 of the first is higher: 1000 to 10000 nM for the first, 1 to 99 nM for the second. The second is the more potent here.

`CCC(=O)N1CCC(Oc2ccc(-c3ccc4cnccc4c3)nc2)CC1` [Example 147, 1-[4-(6-Isoquinolin-6-yl-pyridin-3-yloxy)-piperidin-1-yl]-propan-1-one, 2HCl] and `CCC(=O)N1CCC(Oc2ccc(-c3cc4ccccc4nc3Cl)cc2)CC1` [Example 16, 1-{4-[4-(2-Chloroquinolin-3-yl)-phenoxy]-piperidin-1-yl}-propan-1-one] fall in the same range of IC50: 1000 to 10000 nM for the first, 1000 to 10000 nM for the second.

First: CC(C)C(=O)N1CCC(Sc2ccc(-c3cncc4ccccc34)cc2)CC1 [Example 523, 1-(4-((4-(Isoquinolin-4-yl)phenyl)thio)piperidin-1-yl)-2-methylpropan-1-one HCl]
Second: CON(C)C(=O)N1CCC(Oc2ccc(-c3cnc4ccccc4c3C)cc2)CC1 [Example 83, 4-[4-(4-Methylquinolin-3-yl)-phenoxy]-piperidine-1-carboxylic acid methoxymethyl-amide]
The IC50 of the first is higher: 1000 to 10000 nM for the first, 1 to 99 nM for the second. The second is the more potent here.

`CCC(=O)N1CCC(Oc2ccc(-c3cnc(OC)c(OC)c3)cc2)CC1` [Example 498, 1-{4-[4-(5,6-Dimethoxypyridin-3-yl)-phenoxy]-piperidin-1-yl}-propan-1-one] and `CCC(=O)N1CCC(Oc2cccc(-c3cnc4ccccc4c3)c2)CC1` [Example 496, 1-[4-(3-Quinolin-3-yl-phenoxy)-piperidin-1-yl]-propan-1-one] fall in the same range of IC50: 1000 to 10000 nM for the first, 1000 to 10000 nM for the second.

`CCC(=O)N1CCC(Oc2ccc(-c3cnc4ccccc4c3N(C)C)cc2)CC1` [Example 232, 1-{4-[4-(4-Dimethylaminoquinolin-3-yl)-phenoxy]-piperidin-1-yl}-propan-1-one] and `N#CCC(=O)N1CCC(Oc2ccc(-c3cnc4ccccc4c3)cc2)CC1` [Example 218, 3-Oxo-3-[4-(4-quinolin-3-yl-phenoxy)-piperidin-1-yl]-propionitrile] fall in the same range of IC50: 1000 to 10000 nM for the first, 1000 to 10000 nM for the second.

`Cc1ccc2ccc(-c3ccc(OC4CCN(C(=O)C5CC5)CC4)cc3)c(F)c2n1` [Example 26, Cyclopropyl-{4-[4-(8-fluoro-2-methylquinolin-7-yl)-phenoxy]-piperidin-1-yl}-methanone] and `O=C(C1CC1)N1CCC(Oc2ccc(-c3cc(F)cc(OCc4ccccc4)c3)cc2)CC1` [Example 507, [4-(5′-Benzyloxy-3′-fluorobiphenyl-4-yloxy)-piperidin-1-yl]-cyclopropyl-methanone] fall in the same range of IC50: 1000 to 10000 nM for the first, 1000 to 10000 nM for the second.

`C[C@H]1CCO[C@H]1C(=O)N1CCC(Oc2ccc(-c3cnc4ccccc4c3)cc2)CC1` (racemic) [Example 154, ((2R,3S)/(2S,3R)-3-Methyl-tetrahydrofuran-2-yl)-[4-(4-quinolin-3-yl-phenoxy)-piperidin-1-yl]-methanone, HCl] and `N#Cc1cnc2cc(-c3ccc(OC4CCN(C(=O)[C@H]5CCCO5)CC4)cc3)ccc2c1` [Example 278, 7-{4-[1-((R)-Tetrahydrofuran-2-carbonyl)-piperidin-4-yloxy]-phenyl}-quinoline-3-carbonitrile] fall in the same range of IC50: 1 to 99 nM for the first, 1 to 99 nM for the second.

For `CCC(=O)N1CCC(C(=O)N(C)c2ccc(-c3ccc4cnccc4c3)cc2)CC1` [Example 151, 1-Propionyl-piperidine-4-carboxylic acid (4-isoquinolin-6-yl-phenyl)-methylamide], the IC50 was 100 to 999 nM.
